For series [1], the target named is T1, Estrogen receptor (Homo sapiens) (UniProt P03372).
T1 sequence (whole entry): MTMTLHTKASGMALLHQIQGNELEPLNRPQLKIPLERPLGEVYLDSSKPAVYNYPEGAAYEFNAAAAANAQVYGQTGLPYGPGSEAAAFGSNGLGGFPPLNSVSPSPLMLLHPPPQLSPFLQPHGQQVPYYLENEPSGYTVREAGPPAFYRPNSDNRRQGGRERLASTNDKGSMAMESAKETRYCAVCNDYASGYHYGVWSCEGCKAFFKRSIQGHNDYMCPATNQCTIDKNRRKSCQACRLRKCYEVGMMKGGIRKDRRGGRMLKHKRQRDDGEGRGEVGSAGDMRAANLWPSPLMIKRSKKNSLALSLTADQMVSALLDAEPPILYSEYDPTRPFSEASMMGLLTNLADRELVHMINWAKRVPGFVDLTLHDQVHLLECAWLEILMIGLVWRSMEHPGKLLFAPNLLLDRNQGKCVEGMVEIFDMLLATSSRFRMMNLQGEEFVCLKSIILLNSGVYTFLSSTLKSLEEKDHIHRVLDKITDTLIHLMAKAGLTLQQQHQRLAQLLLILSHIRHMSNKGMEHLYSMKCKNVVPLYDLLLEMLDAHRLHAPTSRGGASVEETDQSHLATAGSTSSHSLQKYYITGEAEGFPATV
The experiment in a line: Antagonist activity at ERalpha in human MCF7/2a cells assessed as reduction in 1 nM estradiol-induced receptor activation by luciferase reporter gene assay relative to untreated control. The class given is functional, cell-based.

The target of series [2] is T2, Estrogen receptor (Homo sapiens, UniProt P03372).
T2 sequence (P03372 whole entry): T1 sequence (whole entry)
The series is described as follows: Activation of ERalpha in human MCF7/2a cells by luciferase reporter gene assay relative to untreated control. It is filed as cell-based.

Series [3] has as its target T2, Estrogen receptor. The series is described as follows: Activation of human ERalpha expressed in human U2-OS cells by luciferase reporter gene assay relative to untreated control. It is filed as cell-based, U2OS.
Series [4] has as its system MCF7. The series is described as follows: Down regulation of ERalpha human MCF7 cells at 10 uM by Western blotting. The class given is functional, cell-based.
Series [5] has as its system MCF7. The experiment in a line: Cytotoxicity in hormone-dependent human MCF7 cells assessed as growth inhibition incubated for 4 day s by crystal violet assay. It is filed as functional, cell-based. Particulars: MCF7, 96 h.
In series [6] the target is T1, Estrogen receptor (Homo sapiens). The series is described as follows: Activation of ERalpha in human MCF7/2a cells pre-exposed to compound 1 to 3 hrs before 0.1 uM 4-OHT addition by luciferase reporter gene assay relative to untreated control. It is filed as cell-based.
Series [7] shares this target. The experiment in a line: Activation of ERalpha in human MCF7/2a cells in presence of 0.1 uM 4-OHT by luciferase reporter gene assay relative to untreated control. The class given is cell-based.
The nature of series [8]: Toxicity in hormone-independent human MDA-MB-231 cells assessed as growth inhibition incubated for 4 day s by crystal violet assay. The class given is cell-based.
Series [9] is described as follows: Chemical stability in pH 7.3 PBS buffer at 10 uM at 37 degC. It is filed as physicochemical.
The subject of series [10] is MCF7. The series is described as follows: Stimulation of cell growth in human MCF7 cells incubated for 20 to 100 hrs by crystal violet assay. The class given is cell-based.

Each structure is given as a SMILES string. Active and inactive are the calls of the source. The rule behind the calls is not given here.

Take `CCCn1c(-c2ccc(O)cc2)cc(-c2ccc(O)cc2)c1-c1ccc(O)cc1Cl`: the result in [1] was inactive. For the same molecule, the EC50 worked out at 63 nM on Estrogen receptor [2] and 0.31 nM on Estrogen receptor [3]. In addition, the outcome with MCF7 [4] was Active.

Turning to `Cn1c(-c2ccc(O)cc2)cc(-c2ccc(O)cc2)c1-c1ccc(O)cc1Cl`, the result in series [1] was inactive. Besides, the results for the EC50 on Estrogen receptor [2] and at Estrogen receptor [3] were 600 nM and 16 nM, respectively. Further, the half-maximal inhibitory concentration (IC50) with MCF7 [5] was determined as 19100 nM. The outcome in the series on MCF7 [4] was Active.

Consider `CCCn1c(-c2ccc(O)cc2F)cc(-c2ccc(O)cc2)c1-c1ccc(O)cc1F`, for which the outcome in series [1] and in series [7] was inactive. For the same molecule, the concentration for a half-maximal effect (EC50) at Estrogen receptor [2] worked out at 30 nM; at Estrogen receptor [3] it was 0.27 nM. Besides, the result (in series [6]; with MCF7 [4]) was Active. The IC50 at 4 days in series [8] turned out to be 20900 nM.

Molecule `CCCc1c(-c2ccc(O)cc2)cn(-c2ccc(O)cc2)c1-c1ccc(O)cc1` showed a half-life at 10 µM in [9] of 7.04 days. Further, the EC50 at Estrogen receptor [2] worked out at 70 nM; at Estrogen receptor [3] it was 1.6 nM. The result in series [6] was Active. Further, in series [7], the outcome was inactive.

With `Cn1c(-c2ccc(O)cc2F)cc(-c2ccc(O)cc2)c1-c1ccc(O)cc1F`, the outcome in series [1] was inactive. Moreover, the half-maximal effective concentration (EC50) on Estrogen receptor [2] is 290 nM; at Estrogen receptor [3] it was 15 nM. In addition, in the series on MCF7 [5], the IC50 worked out at 8500 nM. Also, the result in the series with MCF7 [4] was Active. The Activity result in the series with MCF7 [10] is on record as “Non-toxic”.

As for `Cn1c(-c2ccc(O)cc2Cl)cc(-c2ccc(O)cc2)c1-c1ccc(O)cc1`, the outcome (in series [1]; in the series with MCF7 [4]) was inactive. The half-maximal inhibitory concentration (IC50) in the series with MCF7 [5] amounted to 23800 nM. This molecule also had an EC50 on Estrogen receptor [3] of 100 nM.

Take `Cn1c(-c2ccc(O)cc2F)cc(-c2ccc(O)cc2)c1-c1ccc(O)cc1`: the outcome (in [1]; in the series on MCF7 [4]) was inactive. Also, the IC50 with MCF7 [5] was 25500 nM. This molecule also came in with an EC50 on Estrogen receptor [3] of 24 nM.

As to `CCCn1c(-c2ccc(O)cc2F)cc(-c2ccc(O)cc2)c1-c1ccc(O)cc1`, the outcome in series [1] was inactive. Moreover, the half-maximal effective concentration (EC50) on Estrogen receptor [2] was 240 nM; at Estrogen receptor [3] it was 0.67 nM. Also, the outcome in the series with MCF7 [4] was Active.

`CCCc1c(-c2ccc(O)cc2)nn(-c2ccc(O)cc2)c1-c1ccc(O)cc1` [PROPYLPYRAZOLETRIOL]: the 50% effective concentration (EC50) at Estrogen receptor [2] is 3 nM; on Estrogen receptor [3] it was 0.1 nM. For the same molecule, in the series with MCF7 [5], the IC50 was determined as 27200 nM. Further, the outcome in the series with MCF7 [4] was Active.

`Cn1c(-c2ccc(O)cc2)cc(-c2ccc(O)cc2)c1-c1ccc(O)cc1F`: the result (in [1]; in the series on MCF7 [4]) was inactive. In the series on MCF7 [5], the half-inhibitory concentration (IC50) was 24700 nM. A half-maximal effect on Estrogen receptor [3] (EC50) was put at 60 nM.

Consider `CCCn1c(-c2ccc(O)cc2)cc(-c2ccc(O)cc2F)c1-c1ccc(O)cc1`, for which the result in series [1] was inactive. For the same molecule, the EC50 at Estrogen receptor [2] is 26 nM; at Estrogen receptor [3], 0.84 nM. In addition, the result in the series on MCF7 [4] was Active.

Consider `CCCn1c(-c2ccc(O)cc2F)cc(-c2ccc(O)cc2F)c1-c1ccc(O)cc1F`, for which the half-life at 10 µM in series [9] was 44 days. Besides, the outcome in series [1] was inactive. Also, the EC50 at Estrogen receptor [2] came out at 23 nM; on Estrogen receptor [3], 0.2 nM. Besides, the 50% inhibitory concentration (IC50) in the series with MCF7 [5] worked out at 5600 nM. In addition, the concentration for half-maximal inhibition (IC50) at 4 days in series [8] came out at 21900 nM. For the same molecule, in the series on MCF7 [4], the outcome was Active. Further, the Activity result in the series on MCF7 [10] is “Non-toxic”.

With `CCCn1c(-c2ccc(O)cc2Cl)cc(-c2ccc(O)cc2)c1-c1ccc(O)cc1`, the half-life at 10 µM in [9] was 61.4 days. In addition, the result in series [1] was inactive. On Estrogen receptor [3], this molecule came in with an EC50 of 47 nM. Also, the result in the series with MCF7 [4] was Active.

In turn, `CCCn1c(-c2ccc(O)cc2)cc(-c2ccc(O)cc2)c1-c1ccc(O)cc1F` gave a half-life at 10 µM in series [9] of 31 days. The result in [1] was inactive. Further, the values for the 50% effective concentration (EC50) at Estrogen receptor [2] and at Estrogen receptor [3] were 70 nM and 0.12 nM, respectively. In the series with MCF7 [4], the result was Active.

In series [9], `CCCn1c(-c2ccc(O)cc2)cc(-c2ccc(O)cc2)c1-c1ccc(O)cc1` gave a half-life at 10 µM of 10.7 days. Moreover, the 50% effective concentration (EC50) on Estrogen receptor [2] is 50 nM; at Estrogen receptor [3], 0.4 nM. For the same molecule, the result in series [6] was Active. For the same molecule, in series [7], the result was inactive.

The record behind these values is ChEMBL document CHEMBL2176980, “Influence of chlorine or fluorine substitution on the estrogenic properties of 1-alkyl-2,3,5-tris(4-hydroxyphenyl)-1H-pyrroles” (J Med Chem, 2012).
